# Paper PMC8146637, “Enhanced Bioavailability and Efficacy of Silymarin Solid Dispersion in Rats with Acetaminophen-Induced Hepatotoxicity” (Pharmaceutics, 2021)
# Assays:
# [1] = Effect of various excipients on silymarin solubility; format: physicochemical
# Protocol: The effect of various excipients on the silymarin solubility was measured. […] Mixtures were centrifuged at 16,000× g for 10 min and supernatants filtered through a membrane filter (pore size; 0.22 μm). Filtrates were diluted in 85% acetonitrile and silybin concentrations analyzed using a liquid chromatography-tandem mass spectrometry (LC-MS/MS) system.
# rat jejunal segments = experiment: Lucifer yellow permeability (intestinal integrity), Ussing chamber; format: in vitro ADME
# Protocol: Segments were mounted on a tissue holder of a […] […] Lucifer yellow fluorescence in 200 μL sample aliquots was measured using a fluorescence spectrophotometer (Infinite 200 PRO, Tecan, Switzerland) at an excitation wavelength of 425 nm and emission wavelength of 535 nm.
# [2] = Liver distribution of silybin after repeated oral administration in APAP-induced hepatotoxic rats; settings: rat, in vivo
# Protocol: To investigate the liver distribution of silymarin and silymarin-SD, blood samples were collected from the abdominal artery at 0.5, 1, 2, 4, and 24 h after the repeated oral administration of silymarin (20 mg/kg as silybin, n = 20) or silymarin-SD (20 mg/kg as silybin, n = 20), according to the dosing schedule. Immediately after blood sampling, the liver was excised, rinsed in saline, and homogenized in nine volumes of saline, using a tissue homogenizer. Aliquots (50 μL) of 10% liver homogenate samples were stored at −80 °C for silybin assay.
# Silybin concentrations in plasma and 10% liver homogenate samples were analyzed. Samples (100 μL) were added to 300 μL IS (naringenin, 20 ng/mL in acetonitrile) and the mixture was vigorously mixed for 10 min, followed by centrifugation at 16,000× g for 5 min. Supernatant aliquots (5 μL) were directly injected into an LC-MS/MS system.
# [3] = in vivo; cited from earlier work
# [4] = Intestinal permeability of silybin, Ussing chamber; settings: male, Wistar, rat, pH 7.4
# Protocol: Male Wistar rats weighing 225–270 g (eight weeks old, n = 28) were purchased from Samtako Co. (Osan, Korea). Rats were housed in a 12-h light/dark cycle, and food and water were supplied ad libitum for one week prior to animal studies. […] Rats were fasted for 16 h, but had free access to water before study commencement. […] A proximal jejunum section (approximately 10 cm) was excised and washed in prewarmed HBSS (pH 7.4). Segments were mounted on a tissue holder of a Navicyte Easy Mount Ussing Chamber (Warner Instruments, Holliston, MA, USA), with a surface area of 0.76 cm², and acclimated in HBSS for 15 min with continuous oxygenation (95% O₂/5% CO₂ gas). […]
# To investigate whether efflux transporters were involved in this process, an apical to basal (A to B) and a basal to apical (B to A) transport of 20 μM silybin in the presence of representative inhibitors of P-gp, MRPs, and BCRPs such as 20 μM cyclosporine A (CsA), 100 μM MK-571, and 20 μM fumitremorgin C (FTC), respectively, were measured in a proximal jejunum section from control rats (n = 4) [45, 46]. The effects of TPGS (0.01–1 mg/mL) on silybin permeability were also measured in a proximal jejunum section from control rats (n = 4) using the above method. […]
increase in silymarin solubility in the presence of excipient [1],Compound,also measured
less than 1.5 fold,hydroxypropyl cellulose [HPC],
2~3 fold,Poloxamer 407,
,Silymarin,"Papp,AB of Lucifer yellow in the presence of silymarin or silymarin-SD (rat jejunal segments): not different; time course of liver silybin concentration [2]: decreased sharply for 4 h; bioavailability [3]: 23–47%"
2~3 fold,pluronic F127,
2~3 fold,Tween 80,
,Lucifer yellow [reference compound],"Papp,AB of Lucifer yellow (rat jejunal segments; intestinal segment of APAP-induced hepatotoxic rats): 0.28 ×10⁻⁶ cm/s"
highest increase,polyvinylpyrrolidone [PVP],
,"COc1cc(C2Oc3cc([C@H]4Oc5cc(O)cc(O)c5C(=O)[C@@H]4O)ccc3OC2CO)ccc1O (stereo partly shown) [silybin, Silybin]","efflux ratio at 2 h, 20 μM [4]: 5.8"
